Measured values taken from US20060252807A1, “Novel ortho-terphenyl inhibitors of p38 kinase and methods of treating inflammatory disorders” (Kalypsys, Inc., priority 2005, published 2006).

What follows are compounds tested against T1, active p38 alpha enzyme (Upstate Biotechnology) (Homo sapiens, UniProt Q16539) (assay: p38α biochemical assay (ATP turnover, luminescent detection, Cambrex PKlight)). Conditions: p38α biochemical assay, Table 1 Biological Activity.
T1 construct: purchased Upstate Biotechnology
T1 sequence (Q16539 whole entry): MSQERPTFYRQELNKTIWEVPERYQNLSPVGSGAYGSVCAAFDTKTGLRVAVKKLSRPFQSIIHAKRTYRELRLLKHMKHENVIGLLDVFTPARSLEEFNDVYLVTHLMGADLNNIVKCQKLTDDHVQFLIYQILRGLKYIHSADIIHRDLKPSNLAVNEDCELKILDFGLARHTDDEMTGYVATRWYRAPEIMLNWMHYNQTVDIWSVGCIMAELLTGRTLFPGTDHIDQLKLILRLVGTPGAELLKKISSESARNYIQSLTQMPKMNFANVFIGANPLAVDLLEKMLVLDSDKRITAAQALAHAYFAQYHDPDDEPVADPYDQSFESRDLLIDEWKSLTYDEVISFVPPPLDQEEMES
Outline: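 In this kinase reaction, p38α used MapkapK2 as phosphorylation substrate at low ATP (1.4 uM final) over 2 hours at 30C, and activity was followed as ATP turnover by luminescence.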

`COc1cc(C(=O)NCc2nc(-c3ccc(F)cc3)c(-c3nc(C(=O)NC(C)C)cs3)o2)cc(Cl)n1` [Example 241] and `Cc1ccc(C(=O)NCc2nc(-c3ccc(F)cc3)c(-c3nc(C(=O)NC(C)C)cs3)o2)cc1Br` [Example 293] cannot be ordered by IC50: > 1 µM for the first, > 1 µM for the second.

`CC(C)NC(=O)c1csc(-c2oc(CNC(=O)c3ccc(F)c([N+](=O)[O-])c3)nc2-c2ccc(F)cc2)n1` [Example 237] and `CC(C)NC(=O)c1csc(-c2oc(CNC(=O)c3ccc(F)cc3Cl)nc2-c2ccc(F)cc2)n1` [Example 199] cannot be ordered by IC50: ≤ 1 µM for the first, ≤ 1 µM for the second.

`CCC(C)C(NC(=O)OC(C)(C)C)C(=O)N1CCN(Cc2nc(-c3ccc(F)cc3)c(-c3nc(C(=O)NC(C)C)cs3)o2)CC1` (stereo not drawn) [Example 565] and `CC(C)NC(=O)c1csc(-c2oc(CN3CCN(C(=O)C(NC(=O)OC(C)(C)C)C(C)C)CC3)nc2-c2ccc(F)cc2)n1` (stereo not drawn) [Example 536] cannot be ordered by IC50: > 1 µM for the first, > 1 µM for the second.

`CC(C)NC(=O)c1csc(-c2oc(CN3CCN(C(=O)C(C)O)CC3)nc2-c2ccc(F)cc2)n1` (stereo not drawn) [Example 338] and `CC(C)NC(=O)c1csc(-c2oc(CN3CCN(C(=O)C4=CCCC4)CC3)nc2-c2ccc(F)cc2)n1` [Example 344] cannot be ordered by IC50: > 1 µM for the first, > 1 µM for the second.

`COc1ccccc1/C=C/C(=O)N1CCN(Cc2nc(-c3ccc(F)cc3)c(-c3nc(C(=O)NC(C)C)cs3)o2)CC1` [Example 442] and `CCC(C(=O)N1CCN(Cc2nc(-c3ccc(F)cc3)c(-c3nc(C(=O)NC(C)C)cs3)o2)CC1)c1ccccc1` (stereo not drawn) [Example 411] cannot be ordered by IC50: ≤ 1 µM for the first, > 1 µM for the second.

`CC(C)NC(=O)c1csc(-c2oc(CNC(=O)c3cccc4ccccc34)nc2-c2ccc(F)cc2)n1` [Example 194] and `CC(C)NC(=O)c1csc(-c2oc(CNC(=O)c3ccc(Oc4ccccc4)cc3)nc2-c2ccc(F)cc2)n1` [Example 290] cannot be ordered by IC50: ≤ 1 µM for the first, > 1 µM for the second.

`COc1ccc(C(=O)NCc2onc(-c3ccc(F)cc3)c2-c2nc(C(=O)NC(C)C)cs2)c(OC)c1OC` [Example 761] and `CC(C)NC(=O)c1csc(-c2c(-c3ccc(F)cc3)noc2CNC(=O)C(C)O)n1` (stereo not drawn) [Example 576] cannot be ordered by IC50: > 1 µM for the first, > 1 µM for the second.

`Cc1onc(-c2ccc(Cl)cc2)c1-c1ccn(C(=O)NC2CC2)n1` [Example 7, 3-|3-(4-Chloro-phenyl)-5-methyl-isoxazol-4-yl|-pyrazole-1-carboxylic acid cyclopropylamide] and `CC(C)NC(=O)c1csc(-c2c(-c3ccc(F)cc3)noc2CNC(=O)C2CCCO2)n1` (stereo not drawn) [Example 584] cannot be ordered by IC50: > 1 µM for the first, > 1 µM for the second.

`CC(C)NC(=O)c1csc(-c2oc(CNC(=O)c3ccc(Br)cc3)nc2-c2ccc(F)cc2)n1` [Example 269] and `CC(C)NC(=O)c1csc(-c2c(-c3ccc(F)cc3)noc2CNCCO)n1` [Example 32, 2-{3-(4-Fluoro-phenyl)-5-|(2-hydroxy-ethylamino)-methyl|-isoxazol-4-yl}-thiazole-4-carboxylic acid isopropylamide] cannot be ordered by IC50: > 1 µM for the first, > 1 µM for the second.

For `CC(C)NC(=O)c1csc(-c2[nH]c(CO)nc2-c2ccc(F)cc2)n1` [Example 84, 2-|5-(4-Fluoro-phenyl)-2-hydroxymethyl-3H-imidazol-4-yl|-thiazole-4-carboxylic acid isopropylamide], the IC50 was ≤ 1 µM.

Same assay, conditions: p38α kinase; Table 1 Biological Activity

`O=C(NC1CCc2ccccc21)c1csc(-c2c(-c3ccc(F)cc3)n[nH]c2C2CCNCC2)n1` (stereo not drawn) [Example 2089] and `CC1CCCCC1NC(=O)c1csc(-c2c(-c3ccc(F)cc3)n[nH]c2C2CCNCC2)n1` (stereo not drawn) [Example 2069] cannot be ordered by IC50: > 1 µM for the first, > 1 µM for the second.

`CC(C)NC(=O)c1csc(-c2oc(CNCC3CC3)nc2-c2ccc(F)cc2)n1` [Example 1060] and `CC(C)NC(=O)c1csc(-c2oc(CNCC3CCCO3)nc2-c2ccc(F)cc2)n1` (stereo not drawn) [Example 1078] cannot be ordered by IC50: > 1 µM for the first, > 1 µM for the second.

`Cc1ccc(C)c(NCc2onc(-c3ccc(F)cc3)c2-c2nc(C(=O)NC(C)C)cs2)c1` [Example 1640] and `CC(C)NC(=O)c1csc(-c2c(-c3ccc(F)cc3)noc2CNc2ccc(Cl)c(Cl)c2)n1` [Example 1682] cannot be ordered by IC50: > 1 µM for the first, > 1 µM for the second.

`CC(C)NC(=O)c1csc(-c2c(-c3ccc(F)cc3)n[nH]c2C2CCN(C(=O)c3cnc[nH]3)CC2)n1` [Example 819] and `CC(C)NC(=O)c1csc(-c2c(-c3ccc(F)cc3)n[nH]c2C2CCN(C(=O)c3cccnc3Cl)CC2)n1` [Example 867] cannot be ordered by IC50: > 1 µM for the first, ≤ 1 µM for the second.

`CC(C)NC(=O)c1csc(-c2c(-c3ccc(F)cc3)n[nH]c2C2CCN(C(=O)CCc3cccc(C(F)(F)F)c3)CC2)n1` [Example 1014] and `CC(C)NC(=O)c1csc(-c2c(-c3ccc(F)cc3)n[nH]c2C2CCN(C(=O)Cc3ccc(Br)cc3)CC2)n1` [Example 1008] cannot be ordered by IC50: > 1 µM for the first, > 1 µM for the second.

`CC(C)NC(=O)c1csc(-c2c(-c3ccc(F)cc3)noc2CN[C@H](CO)Cc2ccccc2)n1` [Example 1474] and `CC(C)NC(=O)c1csc(-c2c(-c3ccc(F)cc3)noc2CN[C@@H](C)c2ccccc2)n1` [Example 1428] cannot be ordered by IC50: > 1 µM for the first, > 1 µM for the second.

`CC(C)NC(=O)c1csc(-c2oc(CN(CCO)CCO)nc2-c2ccc(F)cc2)n1` [Example 1205] and `CC(C)NC(=O)c1csc(-c2oc(CNCCC(C)(C)C)nc2-c2ccc(F)cc2)n1` [Example 1079] cannot be ordered by IC50: > 1 µM for the first, ≤ 1 µM for the second.

`Cc1nc(-c2ccc(F)cc2)c(-c2nc(C(=O)NCC3CCCCC3)cs2)s1` [Example 1745] and `Cc1nc(-c2ccc(F)cc2)c(-c2nc(C(=O)N3CCN(CC4CCCCC4)CC3)cs2)s1` [Example 1906] cannot be ordered by IC50: ≤ 1 µM for the first, > 1 µM for the second.

`Cc1nc(-c2ccc(F)cc2)c(-c2nc(C(=O)NCCC#N)cs2)s1` [Example 1713] and `Cc1nc(-c2ccc(F)cc2)c(-c2nc(C(=O)NCCc3ccc(Cl)cc3)cs2)s1` [Example 1803] cannot be ordered by IC50: > 1 µM for the first, ≤ 1 µM for the second.

`Cc1nc(-c2ccc(F)cc2)c(-c2nc(C(=O)Nc3cc(C(F)(F)F)cc(C(F)(F)F)c3)cs2)s1` [Example 2023] and `Cc1nc(-c2ccc(F)cc2)c(-c2nc(C(=O)Nc3ccc4ncsc4c3)cs2)s1` [Example 1999] cannot be ordered by IC50: > 1 µM for the first, > 1 µM for the second.

`Cc1nc(-c2ccc(F)cc2)c(-c2nc(C(=O)NCc3ccc(C)c(C)c3)cs2)s1` [Example 1775] and `COc1ccc(OC)c(CCNC(=O)c2csc(-c3sc(C)nc3-c3ccc(F)cc3)n2)c1` [Example 1823] cannot be ordered by IC50: ≤ 1 µM for the first, ≤ 1 µM for the second.

`CC(C)NC(=O)c1csc(-c2c(-c3ccc(F)cc3)noc2CNC2CONC2=O)n1` (stereo not drawn) [Example 1412] and `CCN(C)Cc1onc(-c2ccc(F)cc2)c1-c1nc(C(=O)NC(C)C)cs1` [Example 1511] cannot be ordered by IC50: > 1 µM for the first, > 1 µM for the second.

`CC(=O)Nc1ccc(NCc2onc(-c3ccc(F)cc3)c2-c2nc(C(=O)NC(C)C)cs2)cn1` [Example 1676] and `CC(=O)Nc1ccc(NCc2onc(-c3ccc(F)cc3)c2-c2nc(C(=O)NC(C)C)cs2)cc1` [Example 1675] cannot be ordered by IC50: > 1 µM for the first, > 1 µM for the second.

`CC(C)NC(=O)c1csc(-c2oc(CNc3c(C(C)C)cccc3C(C)C)nc2-c2ccc(F)cc2)n1` [Example 1362] and `Cc1nc(-c2ccc(F)cc2)c(-c2nc(C(=O)Nc3c(C(C)C)cccc3C(C)C)cs2)s1` [Example 2012] cannot be ordered by IC50: > 1 µM for the first, > 1 µM for the second.

`CC(C)NC(=O)c1csc(-c2c(-c3ccc(F)cc3)noc2CN2CCN(c3ccc(C(F)(F)F)cc3)CC2)n1` [Example 1622] and `CC(C)NC(=O)c1csc(-c2c(-c3ccc(F)cc3)noc2CNCc2ccc(C(C)(C)C)cc2)n1` [Example 1486] cannot be ordered by IC50: > 1 µM for the first, > 1 µM for the second.

`CC(C)NC(=O)c1csc(-c2oc(CNCCCNC(=O)OC(C)(C)C)nc2-c2ccc(F)cc2)n1` [Example 1165] and `CC(C)NC(=O)c1csc(-c2oc(CNCc3cccs3)nc2-c2ccc(F)cc2)n1` [Example 1088] cannot be ordered by IC50: > 1 µM for the first, > 1 µM for the second.

`Cc1cnc(CNCc2nc(-c3ccc(F)cc3)c(-c3nc(C(=O)NC(C)C)cs3)o2)cn1` [Example 1102] and `COc1ccc(NCc2nc(-c3ccc(F)cc3)c(-c3nc(C(=O)NC(C)C)cs3)o2)cc1` [Example 1325] cannot be ordered by IC50: > 1 µM for the first, > 1 µM for the second.

`CC(C)NC(=O)c1csc(-c2c(-c3ccc(F)cc3)n[nH]c2C2CCN(C(=O)c3ccc4cc(O)ccc4c3)CC2)n1` [Example 956] and `CC(C)NC(=O)c1csc(-c2c(-c3ccc(F)cc3)n[nH]c2C2CCN(C(=O)c3ccc(Oc4ccccc4)cc3)CC2)n1` [Example 1004] cannot be ordered by IC50: > 1 µM for the first, > 1 µM for the second.

`Cc1[nH]nc(-c2ccc(F)cc2)c1-c1nc(C(=O)NC(C)C)ns1` [Example 2195, 5-|3-(4-Fluoro-phenyl)-5-methyl-1H-pyrazol-4-yl|-|1,2,4|thiadiazole-3-carboxylic acid isopropylamide] and `CC(=O)C(=O)N1CCC(c2[nH]nc(-c3ccc(F)cc3)c2-c2nc(C(=O)NC(C)C)cs2)CC1` [Example 2176, 2-{3-(4-Fluoro-phenyl)-5-|1-(2-oxo-propionyl)-piperidin-4-yl|-1H-pyrazol-4-yl}-thiazole-4-carboxylic acid isopropylamide] cannot be ordered by IC50: > 1 µM for the first, ≤ 1 µM for the second.

`CC(C)NC(=O)c1csc(-c2c(-c3ccc(F)cc3)noc2CNCCN(C(C)C)C(C)C)n1` [Example 1469] and `CC(C)CC(C)NCc1onc(-c2ccc(F)cc2)c1-c1nc(C(=O)NC(C)C)cs1` (stereo not drawn) [Example 1411] cannot be ordered by IC50: > 1 µM for the first, > 1 µM for the second.

`COc1ccc(NCc2onc(-c3ccc(F)cc3)c2-c2nc(C(=O)NC(C)C)cs2)cc1OC` [Example 1379] and `CC(=O)c1ccc(NCc2onc(-c3ccc(F)cc3)c2-c2nc(C(=O)NC(C)C)cs2)cc1` [Example 1659] cannot be ordered by IC50: > 1 µM for the first, > 1 µM for the second.

`CCOC(=O)CC1C(=O)NCCN1Cc1nc(-c2ccc(F)cc2)c(-c2nc(C(=O)NC(C)C)cs2)o1` (stereo not drawn) [Example 1257] and `CC(C)NC(=O)c1csc(-c2oc(CN3CCCCC3C)nc2-c2ccc(F)cc2)n1` (stereo not drawn) [Example 1197] cannot be ordered by IC50: > 1 µM for the first, > 1 µM for the second.

`Cc1nc(-c2ccc(F)cc2)c(-c2nc(C(=O)N3CC(C)CC(C)C3)cs2)s1` (stereo not drawn) [Example 1856] and `CC(C)NC(=O)c1csc(-c2c(-c3ccc(F)cc3)noc2CNCc2ccc(C(C)C)cc2)n1` [Example 1471] cannot be ordered by IC50: > 1 µM for the first, > 1 µM for the second.

With `CC(C)NC(=O)c1csc(-c2oc(CNc3ncccc3OCc3ccccc3)nc2-c2ccc(F)cc2)n1` [Example 1371] the IC50 was > 1 µM.
